Values quoted from earlier work in patent US6768024B1, “Triamine derivative melanocortin receptor ligands and methods of using same” (Lion Bioscience AG, priority 2000, dated 2004).

Tests used:
rodent models = settings: normal, Zucker fatty and diet-induced obesity rodent models
rats = settings: IP, ICV
human subjects = settings: pilot phase I

## CC(C)CC(N(C)C)C1(c2ccc(Cl)cc2)CCC1 (stereo not drawn) [Sibutramine]
Rodent models
  body weight: lower body weight

## Ac-Nle-Gln-His-(D)-Phe-Arg-(D)-Trp-Gly-NH2 [HP228]
rats
  hypophagia and weight loss: notable hypophagia and weight loss

## MELANOTAN-II
Human subjects
  penile erections: cause penile erections
